Test results taken from ChEMBL document CHEMBL5543109, “Novel β-Hairpin Antimicrobial Peptide Containing the β-Turn Sequence of -NG- and the Tryptophan Zippers Facilitate Self-Assembly into Nanofibers, Exhibiting Excellent Antimicrobial Performance” (J Med Chem, 2024).
In brackets after ≈: the same amount, converted by molar mass. Activity calls are given as the source filed them. No cut-off for these calls is given here.

Assays:
[1] = test system: Staphylococcus epidermidis; test: Bactericidal activity against Staphylococcus epidermidis ATCC 12228 incubated for 18 hrs by broth microdilution method; assay type: functional
Staphylococcus aureus [2] = test: Synergistic antibacterial activity against methicillin resistant Staphylococcus aureus assessed as fractional inhibitory concentration index incubated for 18 hrs in presence of cefotaxime by checkerboard assay; assay type: functional
Bacillus subtilis [3] = test: Antibacterial activity against Bacillus subtilis ATCC 23857 incubated for 18 hrs by broth microdilution method; assay type: functional
Staphylococcus aureus [4] = test: Antibacterial activity against Staphylococcus aureus 794 infected in BALB/c mouse skin wound infection model assessed as wound healing by measuring thickened scab at 1 mg/ml, ip pre-infected with bacteria for 24 hrs followed by compound addition and measured on day 9; assay type: functional, organism-based; details: time 9.0 day
Staphylococcus aureus [5] = test: Additive antibacterial activity against Staphylococcus aureus 125 assessed as fractional inhibitory concentration index incubated for 18 hrs in presence of ciprofloxacin by checkerboard assay; assay type: functional
Staphylococcus aureus [6] = test: Additive antibacterial activity against Staphylococcus aureus 794 assessed as fractional inhibitory concentration index incubated for 18 hrs in presence of ciprofloxacin by checkerboard assay; assay type: functional
Staphylococcus aureus [7] = test: Antibacterial activity against Staphylococcus aureus incubated for 18 hrs in presence of NaCl by broth microdilution method; assay type: functional, organism-based
Pseudomonas aeruginosa [8] = test: Antibacterial activity against Pseudomonas aeruginosa incubated for 18 hrs in presence of ZnCl2 by broth microdilution method; assay type: functional, organism-based
Cell membrane [9] = test: Induction of outer membrane permeabilization in Escherichia coli within 1 min by NPN-dye based assay; assay type: cell membranes
Escherichia coli [10] = test: Antibacterial activity against kanamycin resistant Escherichia coli incubated for 18 hrs by broth microdilution method; assay type: functional
Pseudomonas aeruginosa [11] = test: Antibacterial activity against Pseudomonas aeruginosa incubated for 18 hrs in presence of NaCl by broth microdilution method; assay type: functional, organism-based
Pseudomonas aeruginosa [12] = test: Induction of morphological change in Pseudomonas aeruginosa assessed as bacterial swelling at 2 times MIC incubated for 30 mins by SEM analysis; assay type: functional, organism-based
Staphylococcus aureus [13] = test: Antibacterial activity against Staphylococcus aureus ATCC 25923 incubated for 18 hrs by broth microdilution method; assay type: functional
[14] = Self-assembly property of compound in PBS assessed as beta-sheet nanofibers formation incubated for 1 hr by Thioflavin T based fluorescence spectrophotometer analysis; assay type: physicochemical; details: buffer, dose 0.5-1.5 µM
Staphylococcus aureus [15] = test: Antibacterial activity against methicillin resistant Staphylococcus aureus 113 incubated for 18 hrs by broth microdilution method; assay type: functional
Cell membrane [16] = test: Induction of cytoplasmic membrane depolarization in Staphylococcus aureus at 2 to 4 times MIC by DiSC3-5 dye based fluorescence method; assay type: cell membranes
[17] = Toxicity in BALB/c mouse infected with Staphylococcus aureus 794 assessed as hyperkeratosis at 1 mg/ml, ip pre-infected with bacteria for 24 hrs followed by compound addition and measured after 13 days by H and E staining based histopathological analysis; assay type: organism-based; details: in vivo, 312 h, time 13 day
Klebsiella pneumoniae [18] = test: Bactericidal activity against Klebsiella pneumoniae at 2 times MIC within 90 mins; assay type: functional; details: 1.5 h
Cell membrane [19] = test: Induction of cell membrane disruption in Staphylococcus aureus assessed as PI uptake at 4 times MIC incubated for 2 hrs by PI staining based flow cytometry analysis (reference value: 15.9%); assay type: cell membranes
Klebsiella pneumoniae [20] = test: Antibacterial activity against Klebsiella pneumoniae ATCC 700603 incubated for 18 hrs by broth microdilution method; assay type: functional
Escherichia coli [21] = test: Antibacterial activity against Escherichia coli at 2 times MIC preincubated with 256 ug/ml LPS for 1 hr followed by bacterial addition and measured after 5 hrs; assay type: functional, organism-based; details: time 6.0 hrs
Staphylococcus aureus [22] = test: Synergistic antibacterial activity against methicillin resistant Staphylococcus aureus 75 assessed as fractional inhibitory concentration index incubated for 18 hrs in presence of kanamycin by checkerboard assay; assay type: functional
Staphylococcus aureus [23] = test: Additive antibacterial activity against methicillin resistant Staphylococcus aureus 113 assessed as fractional inhibitory concentration index incubated for 18 hrs in presence of ciprofloxacin by checkerboard assay; assay type: functional
Escherichia coli [24] = test: Antibacterial activity against kanamycin resistant Escherichia coli assessed as fractional inhibitory concentration index incubated for 18 hrs in presence of kanamycin by checkerboard assay; assay type: functional
[25] = Stability in mouse serum assessed as half-life measured upto 48 hrs by RP-HPLC analysis; assay type: ADME, cell-free
Staphylococcus aureus [26] = test: Additive antibacterial activity against Staphylococcus aureus 794 assessed as fractional inhibitory concentration index incubated for 18 hrs in presence of kanamycin by checkerboard assay; assay type: functional
Staphylococcus aureus [27] = test: Antibacterial activity against Staphylococcus aureus at 2 times MIC preincubated for 1 hr with chymotrypsin followed by enzyme inactivation and bacterial addition and measured after 18 hrs; assay type: functional; details: time 19 hrs
Pseudomonas aeruginosa [28] = test: Drug resistance against Pseudomonas aeruginosa assessed as fold increase in MIC after 40 consecutive days of passages by sequential passaging method; assay type: functional; details: time 18 hrs
Staphylococcus aureus [29] = test: Antibacterial activity against Staphylococcus aureus incubated for 18 hrs in presence of FeCl3 by broth microdilution method; assay type: functional, organism-based
[30] = Acute toxicity in mouse assessed as inflammatory cell infiltration in lung at 230.5 mg/kg, ip by H and E staining based assay; assay type: organism-based; details: in vivo
Cell membrane [31] = test: Induction of cytoplasmic membrane depolarization in Staphylococcus aureus at 0.5 times MIC by DiSC3-5 dye based fluorescence method; assay type: cell membranes
Staphylococcus aureus [32] = test: Antibacterial activity against kanamycin resistant Staphylococcus aureus assessed as fractional inhibitory concentration index incubated for 18 hrs in presence of kanamycin by checkerboard assay; assay type: functional
Staphylococcus aureus [33] = test: Synergistic antibacterial activity against methicillin resistant Staphylococcus aureus 75 assessed as fractional inhibitory concentration index incubated for 18 hrs in presence of cefotaxime by checkerboard assay; assay type: functional
Escherichia coli [34] = test: Antibacterial activity against kanamycin resistant Escherichia coli assessed as fractional inhibitory concentration index incubated for 18 hrs in presence of streptomycin by checkerboard assay; assay type: functional
Pseudomonas aeruginosa [35] = test: Antibacterial activity against Pseudomonas aeruginosa incubated for 18 hrs in presence of NH4Cl by broth microdilution method; assay type: functional, organism-based
Staphylococcus aureus [36] = test: Synergistic antibacterial activity against methicillin resistant Staphylococcus aureus 75 assessed as fractional inhibitory concentration index incubated for 18 hrs in presence of rifampin by checkerboard assay; assay type: functional
Staphylococcus aureus [37] = test: Antibacterial activity against Staphylococcus aureus infected in BALB/c mouse systemic infection model assessed as reduction in lung bacterial load at 5 to 10 mg/kg, ip measured after 8 hrs; assay type: functional, organism-based; details: dose 5-10 mg/kg
[38] = Acute toxicity in mouse assessed as cell swelling at 230.5 mg/kg, ip by H and E staining based assay; assay type: organism-based; details: in vivo
Staphylococcus aureus [39] = test: Induction of morphological change in Staphylococcus aureus assessed as bacterial lysis at 2 times MIC incubated for 30 mins by SEM analysis; assay type: functional, organism-based
Escherichia coli [40] = test: Antibacterial activity against Escherichia coli incubated for 18 hrs by broth microdilution method; assay type: functional
Escherichia coli [41] = test: Antibacterial activity against Escherichia coli infected in BALB/c mouse systemic infection model assessed as reduction in liver bacterial load at 5 to 10 mg/kg, ip measured after 24 hrs; assay type: functional, organism-based; details: dose 5-10 mg/kg
Staphylococcus aureus [42] = test: Additive antibacterial activity against methicillin resistant Staphylococcus aureus assessed as fractional inhibitory concentration index incubated for 18 hrs in presence of ciprofloxacin by checkerboard assay; assay type: functional
Staphylococcus aureus [43] = test: Induction of morphological change in Staphylococcus aureus assessed as bacterial collapse at 2 times MIC incubated for 30 mins by SEM analysis; assay type: functional, organism-based
Bacillus subtilis [44] = test: Bactericidal activity against Bacillus subtilis ATCC 23857 incubated for 18 hrs by broth microdilution method; assay type: functional

For `NCCCC[C@@H](NC(=O)[C@H](N)Cc1c[nH]c2ccccc12)C(=O)N[C@H](Cc1c[nH]c2ccccc12)C(=O)N[C@H](CCCCN)C(=O)N[C@H](Cc1c[nH]c2ccccc12)C(=O)N[C@@H](CC(N)=O)C(=O)NCC(=O)N[C@H](Cc1c[nH]c2ccccc12)C(=O)N[C@H](CCCCN)C(=O)N[C@H](Cc1c[nH]c2ccccc12)C(=O)N[C@H](CCCCN)C(=O)N[C@H](Cc1c[nH]c2ccccc12)C(N)=O`, the MBC [1] was 4 µM (≈ 7.27 µg/mL), the “fractional inhibitory concentration index (FICI)” value (Staphylococcus aureus [2]) was 0.313 and the MIC (Bacillus subtilis [3]) was 2 µM (≈ 3.64 µg/mL). The Activity (Staphylococcus aureus [4]) was “Active”, the “fractional inhibitory concentration index (FICI)” value (Staphylococcus aureus [5]) was 1 and the “fractional inhibitory concentration index (FICI)” value (Staphylococcus aureus [6]) was 0.563. For the same compound, the Activity (Staphylococcus aureus [7]) was “Active”, the Activity (Pseudomonas aeruginosa [8]) was “Active” and the Activity (Cell membrane [9]) was “Dose-Dependent Effect”. For the same compound, the MIC (Escherichia coli [10]) was 16 µM (≈ 29.1 µg/mL), the Activity (Pseudomonas aeruginosa [11]) was “Active” and the Activity (Pseudomonas aeruginosa [12]) was “Active”. For the same compound, the MIC (Staphylococcus aureus [13]) was 4 µM (≈ 7.27 µg/mL), the Activity [14] was “Dose-Dependent Effect” and the MIC (Staphylococcus aureus [15]) was 8 µM (≈ 14.5 µg/mL). The Activity (Cell membrane [16]) was “Active”, the Activity [17] was “Non-Toxic” and the Activity (Klebsiella pneumoniae [18]) was 100%. The Activity (Cell membrane [19]) was 95.5%, the MIC (Klebsiella pneumoniae [20]) was 8 µM (≈ 14.5 µg/mL) and the Activity (Escherichia coli [21]) was “inactive”. The “fractional inhibitory concentration index (FICI)” value (Staphylococcus aureus [22]) was 0.5, the “fractional inhibitory concentration index (FICI)” value (Staphylococcus aureus [23]) was 1 and the “fractional inhibitory concentration index (FICI)” value (Escherichia coli [24]) was 0.188. The half-life [25] was over 48 h, the “fractional inhibitory concentration index (FICI)” value (Staphylococcus aureus [26]) was 0.563 and the Activity (Staphylococcus aureus [27]) was 100%. For the same compound, the “fold change (FC)” value (Pseudomonas aeruginosa [28]) was 4, the Activity (Staphylococcus aureus [29]) was “Active” and the Activity [30] was “Toxic”. For the same compound, the Activity (Cell membrane [31]) was “inactive”, the “fractional inhibitory concentration index (FICI)” value (Staphylococcus aureus [32]) was 0.563 and the “fractional inhibitory concentration index (FICI)” value (Staphylococcus aureus [33]) was 0.375. For the same compound, the “fractional inhibitory concentration index (FICI)” value (Escherichia coli [34]) was 0.188, the Activity (Pseudomonas aeruginosa [35]) was “Active” and the “fractional inhibitory concentration index (FICI)” value (Staphylococcus aureus [36]) was 0.313. For the same compound, the Activity (Staphylococcus aureus [37]) was “Active”, the Activity [38] was “Toxic” and the Activity (Staphylococcus aureus [39]) was “Active”. For the same compound, the MIC (Escherichia coli [40]) was 8 µM (≈ 14.5 µg/mL), the Activity (Escherichia coli [41]) was “Active” and the “fractional inhibitory concentration index (FICI)” value (Staphylococcus aureus [42]) was 0.563. For the same compound, the Activity (Staphylococcus aureus [43]) was “Active” and the MBC (Bacillus subtilis [44]) was 4 µM (≈ 7.27 µg/mL).
